The source of these data is patent US11407757B2, “Heterocycle compounds as Tyro3, Axl and MerTK (TAM) family of receptor tyrosine kinase inhibitors” (Development Center for Biotechnology, priority 2017, dated 2022).

pIC50: −log10 of the molar value. Like-named read-outs stand apart in the source and are kept apart here.

One assay has as its target Axl kinase (Homo sapiens (Human), UniProt P30530). The assay is described as follows: Axl kinase assay (AlphaScreen). The settings on record: activity level class. It counts as biochemical. Background: Bead proximity is the source of the signal in Alpha formats.
The target in the next assay is Met kinase (Homo sapiens, UniProt P08581). The assay is described as follows: Met kinase assay (AlphaScreen). Type of assay: biochemical.
Another assay addresses Mer kinase (Homo sapiens (Human), UniProt Q12866). In words: Mer kinase assay (AlphaScreen). Particulars: read-out: Mer kinase IC50; activity level class.
Setting [1] is: activity level class, read-out: Met kinase IC50.

With `COc1nc(Nc2ccc(CN3CCC(C)CC3)cc2)nc2[nH]cc(-c3ccc(NS(=O)(=O)c4cc(F)ccc4F)cc3)c12` [Compound 2, 2,5-difluoro-N-(4-(4-methoxy-2-((4-((4-methylpiperidin-1-yl)methyl)phenyl)amino)-7H-pyrrolo[2,3-d]pyrimidin-5-yl)phenyl)benzene-sulfonamide], the results for the negative-log IC50 (pIC50) at Axl kinase, at Met kinase and on Mer kinase were greater than 7.52, 6.40 to 7.00 and greater than 7.52, respectively.
With `COc1nc(Nc2ccc(CN3CCC(N)CC3)cc2)nc2[nH]cc(-c3ccc(S(=O)(=O)N(C)C)cc3)c12` [Compound 6, 4-(2-((4-((4-aminopiperidin-1-yl)methyl)phenyl)amino)-4-methoxy-7H-pyrrolo[2,3-d]pyrimidin-5-yl)-N,N-dimethylbenzene-sulfonamide], the pIC50 (in general, the negative decadic logarithm of the IC50, by convention in mol/L) at Mer kinase was less than 6.00.
For the molecule `COc1nc(Nc2ccc(CN3CCOCC3)cc2)nc2[nH]cc(-c3ccc(S(=O)(=O)N(C)C)cc3)c12` [Compound 7, 4-(4-methoxy-2-((4-(morpholinomethyl)phenyl)amino)-7H-pyrrolo[2,3-d]pyrimidin-5-yl)-N,N-dimethylbenzene-sulfonamide], the negative-log IC50 (pIC50) at Mer kinase was less than 6.00.
Still for that read-out and setting: with `COc1ccc(-c2c[nH]c3nc(Nc4ccc(CN5CCN(C)CC5)cc4)nc(OC)c23)cc1` [Compound 20, 4-methoxy-5-(4-methoxyphenyl)-N-(4-((4-methylpiperazin-1-yl)methyl)phenyl)-7H-pyrrolo[2,3-d] pyrimidin-2-amine] the figure was less than 6.00; with `COc1nc(Nc2ccc(CN3CCC(C)CC3)cc2)nc2[nH]cc(-c3ccc(NC(=O)c4cc(C)n(C)n4)cc3)c12` [Compound 26, N-(4-(4-methoxy-2-((4-((4-methylpiperidin-1-yl)methyl)phenyl)amino)-7H-pyrrolo[2,3-d]pyrimidin-5-yl)phenyl)-1,5-dimethyl-7H-pyrazole-3-carboxamide], less than 6.00.
Regarding `COc1cc(-c2c[nH]c3nc(Nc4ccc(CN5CCC(C)CC5)cc4)nc(OC)c23)ccc1OCc1ccccc1` [Compound 44, 5-(4-(benzyloxy)-3-methoxyphenyl)-4-methoxy-N-(4-((4-methylpiperidin-1-yl)methyl)phenyl)-7H-pyrrolo[2,3-d] pyrimidin-2-amine], the negative logarithm of the IC50 (pIC50) on Mer kinase was less than 6.00.
In the case of `COc1nc(Nc2ccc(CN3CCN(C)CC3)cc2)nc2[nH]cc(-c3ccc(OCc4ccccc4)cc3F)c12` [Compound 46, 5-(4-(benzyloxy)-2-fluorophenyl)-4-methoxy-N-(4-((4-methylpiperazin-1-yl)methyl)phenyl)-7H-pyrrolo[2,3-d]pyrimidin-2-amine], on Mer kinase, the pIC50 is less than 6.00.
Still for that read-out and setting: with `COCCOc1nc(Nc2ccc(CN3CCN(C)CC3)cc2)nc2[nH]cc(-c3ccc(C(F)(F)F)cc3)c12` [Compound 84, 4-(2-methoxyethoxy)-N-(4-((4-methylpiperazin-1-yl)methyl)phenyl)-5-(4-(trifluoromethyl)phenyl)-7H-pyrrolo[2,3-d]pyrimidin-2-amine] the figure was less than 6.00; with `CCN(CC)S(=O)(=O)c1ccc(-c2c[nH]c3nc(Nc4ccc(CN5CCN(C)CC5)cc4)nc(OCCOC)c23)cc1` [Compound 86, N,N-diethyl-4-(4-(2-methoxyethoxy)-2-((4-((4-methylpiperazin-1-yl)methyl)phenyl)amino)-7H-pyrrolo[2,3-d]pyrimidin-5-yl)benzenesulfonamide], less than 6.00.
On the same count and under the same terms, with `COCCOc1nc(Nc2ccc(CN3CCN(C)CC3)cc2)nc2[nH]cc(-c3ccc(S(=O)(=O)N4CC(C)CC(C)C4)cc3)c12` (centres unmarked) [Compound 87, 5-(4-((3,5-dimethylpiperidin-1-yl)sulfonyl)phenyl)-4-(2-methoxyethoxy)-N-(4-((4-methylpiperazin-1-yl)methyl)phenyl)-7H-pyrrolo[2,3-d]pyrimidin-2-amine] the figure was less than 6.00; with `COCCOc1nc(Nc2ccc(CN3CCN(C)CC3)cc2)nc2[nH]cc(-c3ccc(S(=O)(=O)N4CCOCC4)cc3)c12` [Compound 88, 4-(2-methoxyethoxy)-N-(4-((4-methylpiperazin-1-yl)methyl)phenyl)-5-(4-(morpholinosulfonyl)phenyl)-7H-pyrrolo[2,3-d]pyrimidin-2-amine], less than 6.00.
Still for that read-out and setting: the value for `COCCOc1nc(Nc2ccc(CN3CCN(C)CC3)cc2)nc2[nH]cc(-c3ccc(S(=O)(=O)C(C)C)cc3)c12` [Compound 89, 5-(4-(isopropylsulfonyl)phenyl)-4-(2-methoxyethoxy)-N-(4-((4-methylpiperazin-1-yl)methyl)phenyl)-7H-pyrrolo[2,3-d]pyrimidin-2-amine] was less than 6.00; that for `COCCOc1nc(Nc2ccc(CN3CCN(C)CC3)cc2)nc2[nH]cc(-c3ccc(OCc4ccccc4)cc3F)c12` [Compound 90, 5-(4-(benzyloxy)-2-fluorophenyl)-4-(2-methoxyethoxy)-N-(4-((4-methylpiperazin-1-yl)methyl)phenyl)-7H-pyrrolo[2,3-d]pyrimidin-2-amine] was less than 6.00.
Regarding `COCCOc1nc(Nc2ccc(CN3CCN(C)CC3)cc2)nc2[nH]cc(-c3ccc(S(=O)(=O)N4CCC4)cc3)c12` [Compound 94, 5-(4-(azetidin-1-ylsulfonyl)phenyl)-4-(2-methoxyethoxy)-N-(4-((4-methylpiperazin-1-yl)methyl)phenyl)-7H-pyrrolo[2,3-d]pyrimidin-2-amine], the negative-log IC50 (pIC50) was greater than 7.52 on Axl kinase, less than 6.00 on Met kinase (setting [1]) and less than 6.00 at Mer kinase.
Consider `COCCOc1nc(Nc2ccc(CN3CCN(C)CC3)cc2)nc2[nH]cc(-c3ccc(OCc4cccnc4)cc3F)c12` [Compound 95, 5-(2-fluoro-4-(pyridin-3-ylmethoxy)phenyl)-4-(2-methoxyethoxy)-N-(4-((4-methylpiperazin-1-yl)methyl)phenyl)-7H-pyrrolo[2,3-d]pyrimidin-2-amine], for which the negative-log IC50 (pIC50) was greater than 7.52 against Axl kinase, less than 6.00 on Met kinase (setting [1]) and less than 6.00 on Mer kinase.
`COCCOc1nc(Nc2ccc(CN3CCN(C)CC3)cc2)nc2[nH]cc(-c3ccc(O)cc3F)c12` [Compound 96, 3-fluoro-4-(4-(2-methoxyethoxy)-2-((4-((4-methylpiperazin-1-yl)methyl)phenyl)amino)-7H-pyrrolo[2,3-d]pyrimidin-5-yl)phenol]: the pIC50 at Axl kinase is greater than 7.52; at Met kinase it was 6.40 to 7.00; on Mer kinase, greater than 7.52.
Take `COCCOc1nc(Nc2ccc(CN3CCN(C)CC3)cc2)nc2[nH]cc(-c3ccc(S(=O)(=O)N4CCCCC4)cc3)c12` [Compound 98, 4-(2-methoxyethoxy)-N-(4-((4-methylpiperazin-1-yl)methyl)phenyl)-5-(4-(piperidin-1-ylsulfonyl)phenyl)-7H-pyrrolo[2,3-d]pyrimidin-2-amine]: the pIC50 is greater than 7.52 against Axl kinase, 6.00 to 6.40 at Met kinase and less than 6.00 at Mer kinase.
As for `COCCOc1nc(Nc2ccc(CN3CCN(C)CC3)cc2)nc2[nH]cc(-c3ccc(OCc4cnccc4OC)cc3F)c12` [Compound 99, 5-(2-fluoro-4-((4-methoxypyridin-3-yl)methoxy)phenyl)-4-(2-methoxyethoxy)-N-(4-((4-methylpiperazin-1-yl)methyl)phenyl)-7H-pyrrolo[2,3-d]pyrimidin-2-amine], the pIC50 at Mer kinase is less than 6.00.
Same read-out and setting: the value for `COCCOc1nc(Nc2ccc(CN3CCN(C)CC3)cc2)nc2[nH]cc(-c3ccc(S(=O)(=O)N4CCN(C)CC4)cc3)c12` [Compound 102, 4-(2-methoxyethoxy)-N-(4-((4-methylpiperazin-1-yl)methyl)phenyl)-5-(4-((4-methylpiperazin-1-yl)sulfonyl)phenyl)-7H-pyrrolo[2,3-d]pyrimidin-2-amine] was less than 6.00.
